Assay results taken from patent US11713323B2, “Crystalline forms of therapeutic compounds and uses thereof” (Kala Pharmaceuticals, Inc., priority 2013, dated 2023).

What was measured:
Assay type in all cases: physicochemical
[1] = Competition between crystalline Forms A and B in mixed nanoparticle suspensions (XRPD); details: competition with crystalline Form A
Protocol: A suspension of nanoparticles of crystalline Form A was generated as described via wet milling the amorphous material. A suspension of nanoparticles of Form B was generated via wet milling of neat Form B crystals as described. The two suspensions were mixed in 1:1 ratio and incubated at room temperature. After 11 days, an XRPD analysis was performed, which estimated that the ratio of Forms A and B was unchanged in the mixture (not shown). A fraction of the mixture was then stirred using a magnetic stir bar to provide an increased energy input in order to accelerate the outcome of the competition experiment.

[2] = Stability of MPP suspensions of crystalline forms on storage (XRPD profile)
Protocol: To characterize the stability of the resulting crystalline forms of Compound 3, changes in XRPD profiles following long-term storage were determined. An MPP suspension comprising of crystalline Form A was stored at room temperature for 7 weeks, while a second MPP suspension also comprising of crystalline Form A was stored at room temperature for 7 weeks followed by an additional 1.5 weeks of agitation. […] To further test the potential for longer term storage, two additional MPP samples comprising of Form A, which were formulated at pH 5.8 and pH 7.4 by incorporating different buffers in the milling slurry, were stored at room temperature for 8 months and then analyzed by XRPD.
To confirm long-term stability, an MPP suspension of crystalline Form B was stored for 7 weeks at room temperature and then was characterized by XRPD. The results of that analysis are shown in FIG. 5, which provides the XRPD pattern of the original crystalline Form B material in the bottom trace and the XRPD pattern of the material after seven weeks of storage in the top trace.

[3] = Crystal form stability during wet-milling (XRPD); details: 5% in 5% F127/DPBS, wet-milled 2 days
Protocol: In accordance to Example 3, mucus-penetrating particles comprising of Crystalline Form B was prepared by wet-milling neat Crystalline Form B. A slurry containing 5% neat crystalline From B of Compound 3 and 5% F127 in DPBS (Dulbecco's Phosphate Buffered Saline) was added to an equal bulk volume of 1-mm ceria-stabilized zirconium oxide beads in a glass vial (e.g. 0.5 mL of slurry for 0.5 mL of beads). A magnetic stir bar was used to agitate the beads, stirring at approximately 500 rpm. The sample was milled for 2 days. Nanoparticles which were approximately 200 nm in diameter (z-averaged), as measured by DLS, were generated.

Compound	relative stability under the current formulation conditions [1]	physical stability during storage (XRPD pattern) ([2]; MPP suspension stored 7 weeks at room temperature)	crystal form stability during milling (XRPD) [3]	shelf stable as suspensions (XRPD profile of crystalline Form A retained) ([2]; MPP samples formulated at pH 5.8 and pH 7.4, room temperature)	shelf stable in solution (XRPD profile of crystalline Form A retained) ([2]; MPP suspension, room temperature, second sample with additional 1.5 weeks of agitation)
COc1cc2c(Oc3ccc4[nH]c(C)cc4c3F)ncnc2cc1OCCCN1CCC2(CC1)COC2 [crystalline Form B, 7-(3-(4-(4-fluoro-2-methyl-1H-indol-5-yloxy)-6-methoxyquinazolin-7-yloxy)propyl)-2-oxa-7-azaspiro[3.5]nonane]	more stable	physically stable during storage	remained stable during milling		
COc1cc2c(Oc3ccc4[nH]c(C)cc4c3F)ncnc2cc1OCCCN1CCC2(CC1)COC2 [crystalline Form A, 7-(3-(4-(4-fluoro-2-methyl-1H-indol-5-yloxy)-6-methoxyquinazolin-7-yloxy)propyl)-2-oxa-7-azaspiro[3.5] nonane]				at least 8 months	at least 7 weeks
